Experimental data published in PubChem BioAssay (NCI).
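All cell lines were grown in 96-well plates and treated with compound for 48 hours. TGI denotes the concentration required for complete inhibition of growth.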

How the values were obtained:
Experiment in all cases: DTP human tumour cell line panel, 48 h
786-0 renal = system: 786-0 renal
A498 renal = system: A498 renal
A549 NSCLC = system: A549 NSCLC
ACHN renal = system: ACHN renal
BT-549 breast = system: BT-549 breast
CAKI-1 renal = system: CAKI-1 renal
COLO 205 colon = system: COLO 205 colon
DU-145 prostate = system: DU-145 prostate
EKVX NSCLC = system: EKVX NSCLC
HCC-2998 colon = system: HCC-2998 colon
HCT-116 colon = system: HCT-116 colon
HCT-15 colon = system: HCT-15 colon
HOP-92 NSCLC = system: HOP-92 NSCLC
HT29 colon = system: HT29 colon
IGROV1 ovarian = system: IGROV1 ovarian
K-562 leukemia = system: K-562 leukemia
KM12 colon = system: KM12 colon
M14 melanoma = system: M14 melanoma
MALME-3M melanoma = system: MALME-3M melanoma
MCF7 breast = system: MCF7 breast
MDA-MB-231 breast = system: MDA-MB-231 breast
MDA-MB-435 = system: MDA-MB-435
MDA-N = system: MDA-N
MOLT-4 leukemia = system: MOLT-4 leukemia
NCI-H226 lung = system: NCI-H226 lung
NCI-H23 lung = system: NCI-H23 lung
NCI-H460 lung = system: NCI-H460 lung
NCI-H522 lung = system: NCI-H522 lung
NCI/ADR-RES ovarian = system: NCI/ADR-RES ovarian
OVCAR-4 ovarian = system: OVCAR-4 ovarian
OVCAR-5 ovarian = system: OVCAR-5 ovarian
PC-3 prostate = system: PC-3 prostate
RPMI-8226 leukemia = system: RPMI-8226 leukemia
RXF 393 renal = system: RXF 393 renal
SF-268 CNS = system: SF-268 CNS
SF-295 CNS = system: SF-295 CNS
SK-MEL-2 melanoma = system: SK-MEL-2 melanoma
SK-MEL-28 melanoma = system: SK-MEL-28 melanoma
SK-MEL-5 melanoma = system: SK-MEL-5 melanoma
SK-OV-3 ovarian = system: SK-OV-3 ovarian
SN12C renal = system: SN12C renal
SNB-19 CNS = system: SNB-19 CNS
SNB-75 CNS = system: SNB-75 CNS
SW-620 colon = system: SW-620 colon
TK-10 renal = system: TK-10 renal
U251 CNS = system: U251 CNS
UACC-257 melanoma = system: UACC-257 melanoma
UACC-62 melanoma = system: UACC-62 melanoma
UO-31 renal = system: UO-31 renal
CCRF-CEM leukemia = system: CCRF-CEM leukemia
HL-60(TB) leukemia = system: HL-60(TB) leukemia
HOP-62 NSCLC = system: HOP-62 NSCLC
LOX IMVI melanoma = system: LOX IMVI melanoma
OVCAR-3 ovarian = system: OVCAR-3 ovarian
OVCAR-8 ovarian = system: OVCAR-8 ovarian
SF-539 CNS = system: SF-539 CNS
SR leukemia = system: SR leukemia
T-47D breast = system: T-47D breast

SMILES: O=C(COc1ccc(OCC(=O)N2C(=O)CN(c3ccc(Cl)cc3)C2=S)cc1)N1C(=O)CN(c2ccc(Cl)cc2)C1=S
- TGI (786-0 renal): 58.6 µM
- TGI (A498 renal): 66.8 µM
- TGI (A549 NSCLC): 78 µM
- TGI (ACHN renal): > 100 µM
- TGI (BT-549 breast): > 100 µM
- TGI (CAKI-1 renal): 40.6 µM
- TGI (COLO 205 colon): 64.1 µM
- TGI (DU-145 prostate): > 100 µM
- TGI (EKVX NSCLC): > 100 µM
- TGI (HCC-2998 colon): 51.4 µM
- TGI (HCT-116 colon): 32.6 µM
- TGI (HCT-15 colon): > 100 µM
- TGI (HOP-92 NSCLC): 88 µM
- TGI (HT29 colon): 92.2 µM
- TGI (IGROV1 ovarian): > 100 µM
- TGI (K-562 leukemia): > 100 µM
- TGI (KM12 colon): 43.4 µM
- TGI (M14 melanoma): > 100 µM
- TGI (MALME-3M melanoma): > 100 µM
- TGI (MCF7 breast): > 100 µM
- TGI (MDA-MB-231 breast): 57 µM
- TGI (MDA-MB-435): > 100 µM
- TGI (MDA-N): 92.5 µM
- TGI (MOLT-4 leukemia): > 100 µM
- TGI (NCI-H226 lung): 90.1 µM
- TGI (NCI-H23 lung): > 100 µM
- TGI (NCI-H460 lung): 66.1 µM
- TGI (NCI-H522 lung): 69.2 µM
- TGI (NCI/ADR-RES ovarian): > 100 µM
- TGI (OVCAR-4 ovarian): > 100 µM
- TGI (OVCAR-5 ovarian): > 100 µM
- TGI (PC-3 prostate): > 100 µM
- TGI (RPMI-8226 leukemia): 75.9 µM
- TGI (RXF 393 renal): 67.5 µM
- TGI (SF-268 CNS): 97.6 µM
- TGI (SF-295 CNS): > 100 µM
- TGI (SK-MEL-2 melanoma): 36.6 µM
- TGI (SK-MEL-28 melanoma): > 100 µM
- TGI (SK-MEL-5 melanoma): 34.5 µM
- TGI (SK-OV-3 ovarian): 90.3 µM
- TGI (SN12C renal): 97.9 µM
- TGI (SNB-19 CNS): > 100 µM
- TGI (SNB-75 CNS): > 100 µM
- TGI (SW-620 colon): > 100 µM
- TGI (TK-10 renal): 91.5 µM
- TGI (U251 CNS): 83.6 µM
- TGI (UACC-257 melanoma): 93.2 µM
- TGI (UACC-62 melanoma): 51.5 µM
- TGI (UO-31 renal): > 100 µM

SMILES: CC(=O)NC(C)(C)C1CC=C(C)/C(=N\O)C1 (stereo not drawn)
- TGI (786-0 renal): > 100 µM
- TGI (A549 NSCLC): > 100 µM
- TGI (BT-549 breast): > 100 µM
- TGI (CCRF-CEM leukemia): > 100 µM
- TGI (COLO 205 colon): > 100 µM
- TGI (DU-145 prostate): > 100 µM
- TGI (EKVX NSCLC): > 100 µM
- TGI (HCC-2998 colon): > 100 µM
- TGI (HCT-116 colon): > 100 µM
- TGI (HCT-15 colon): > 100 µM
- TGI (HL-60(TB) leukemia): > 100 µM
- TGI (HOP-62 NSCLC): > 100 µM
- TGI (HOP-92 NSCLC): > 100 µM
- TGI (HT29 colon): > 100 µM
- TGI (IGROV1 ovarian): > 100 µM
- TGI (K-562 leukemia): > 100 µM
- TGI (KM12 colon): > 100 µM
- TGI (LOX IMVI melanoma): > 100 µM
- TGI (M14 melanoma): > 100 µM
- TGI (MCF7 breast): > 100 µM
- TGI (MDA-MB-231 breast): > 100 µM
- TGI (MDA-MB-435): > 100 µM
- TGI (MDA-N): > 100 µM
- TGI (MOLT-4 leukemia): > 100 µM
- TGI (NCI-H23 lung): > 100 µM
- TGI (NCI-H460 lung): > 100 µM
- TGI (NCI-H522 lung): > 100 µM
- TGI (OVCAR-3 ovarian): > 100 µM
- TGI (OVCAR-4 ovarian): > 100 µM
- TGI (OVCAR-5 ovarian): > 100 µM
- TGI (OVCAR-8 ovarian): > 100 µM
- TGI (PC-3 prostate): > 100 µM
- TGI (SF-268 CNS): > 100 µM
- TGI (SF-295 CNS): > 100 µM
- TGI (SF-539 CNS): > 100 µM
- TGI (SK-MEL-28 melanoma): > 100 µM
- TGI (SK-MEL-5 melanoma): > 100 µM
- TGI (SK-OV-3 ovarian): > 100 µM
- TGI (SN12C renal): > 100 µM
- TGI (SNB-19 CNS): > 100 µM
- TGI (SNB-75 CNS): > 100 µM
- TGI (SR leukemia): > 100 µM
- TGI (SW-620 colon): > 100 µM
- TGI (T-47D breast): > 100 µM
- TGI (TK-10 renal): > 100 µM
- TGI (U251 CNS): > 100 µM
- TGI (UACC-257 melanoma): > 100 µM
- TGI (UACC-62 melanoma): > 100 µM
- TGI (UO-31 renal): > 100 µM
